These results are taken from article PMC10671360, “In Silico and In Vitro Study towards the Rational Design of 4,4′-Disarylbisthiazoles as a Selective α-Synucleinopathy Biomarker” (International Journal of Molecular Sciences, 2023).

SMILES strings stand for the structures. pKi: −log10 of the molar value.

Data set [1] deals with T1, tau fibrils (Homo sapiens, UniProt P10636). In words: Competition binding assay against [^3H]DCVJ, tau fibrils. To be noted: [^3H]DCVJ was used (20 nM); tau aggregates 125 nM. The procedure: (§1) Recombinant tau monomer (R&D systems, Minneapolis, MN, USA) was dissolved in 20 mM of Tris HCl, pH 8.0, 100 mM of NaCl, 25 μM of low-MW heparin, and 0.5 mM of dithiothreitol to a final concentration of 300 µg/mL. The mixture was incubated with shaking at 900 rpm at 37 °C for 48 h. To separate the non-aggregated monomers from the formed fibrils, the reaction mixture was centrifuged at 12,000× g for 5 min, and the resulting pellet was washed three times with 500 μL of 20 mM Tris-HCl, pH 7.4. The supernatants from the three centrifugation steps were combined, and the concentration of the monomer in the resulting supernatant was determined in a BCA assay(Thermo Fisher Scientific, Waltham, MA, USA) (with a BSA standard curve). Determination of the concentration of fibrils formed was carried out by subtracting the amount of tau peptide monomer in the supernatant from the initial amount used for fibrillation. The pellets of the fibrils obtained above (Section 4.2.1) were resuspended in 20 mM of Tris-HCl, pH 7.4 and diluted as needed for the binding assays. A fixed concentration of [^3H]DCVJ (10 nM) and α-synuclein aggregates (125 nM), prepared as described above (Section 4.2.3), was used with different final concentrations of the DABTAs from 0.01 to 100 nM (see SI Figure S1). The experiment was carried out in quintuplicate for each concentration. The mixture was incubated for 2 h in a final volume of 200 μL per well after dilution with 20 mM of Tris-HCl, pH 7.4. The incubated mixtures were filtered through a Perkin Elmer GF/B glass filter via a TOMTEC cell harvester and immediately washed thrice with 1 mL of deionized water. The filters containing the bound ligands were dried and afterwards mixed with 3 mL of BetaPlate Scint solution (Perkin Elmer Life Sciences, Waltham, MA, USA) and left there for 2 h before counting in a Wallac 1450 MicroBeta TriLux Liquid Scintillation Counter (PerkinElmer Life Sciences, Waltham, MA, USA). For the determination of the inhibition constants, data were analyzed using GraphPad Prism software (version 7.0) to obtain IC50 values by fitting the data to the equation Y = bottom + (top − bottom)/(1 + 10(x − log IC50)). Ki values were calculated from IC50 values using the equation Ki = IC50/(1 + [radioligand]/Kd). […] Further protocol was carried out as for [^3H]DCVJ (see SI Figure S3). Fixed concentrations (125 nM) of Aβ1−42, tau aggregates, and [^3H]DCVJ (10 nM and 20 nM for the Aβ1−42 and tau competition experiments respectively) were used with different concentrations of cold versions of the tracers from 1 to 1000 nM (See SI Figure S2). The experiment was performed in quadruplicate for each concentration. Further procedures followed the same already described in Section 4.2.3.1.

In data set [2] the target is T2, recombinant α-syn fibrils (Homo sapiens, UniProt P37840).
T2 construct: made in house
In words: Competition binding assay against [^3H]PiB, α-syn fibrils. To be noted: for Selectivity Aβ/α-syn / Selectivity tau/α-syn: ratio of Ki, [^3H]PiB was used.

Data set [3] is described as follows: Solubility in the incubation medium of the binding assays. The class given is physicochemical. To be noted: incubation buffer of the binding assays.
Data set [4] concerns the target T1, tau fibrils. In words: Competition binding assay against [^3H]PiB, tau fibrils. As for the experimental part:
as §1, with “Fixed concentrations (125 nM) of Aβ1−42, tau aggregates, and [^3H]DCVJ (10 nM and 20 nM for the Aβ1−42 and tau competition experiments respectively) were used with different concentrations of cold versions of the tracers from 1 to 1000 nM (See SI Figure S2). The experiment was performed in quadruplicate for each concentration.” left out, “4.2.3.1 (See SI Figure S4).” for “4.2.3.1.”

T1 sequence (P10636 2-758): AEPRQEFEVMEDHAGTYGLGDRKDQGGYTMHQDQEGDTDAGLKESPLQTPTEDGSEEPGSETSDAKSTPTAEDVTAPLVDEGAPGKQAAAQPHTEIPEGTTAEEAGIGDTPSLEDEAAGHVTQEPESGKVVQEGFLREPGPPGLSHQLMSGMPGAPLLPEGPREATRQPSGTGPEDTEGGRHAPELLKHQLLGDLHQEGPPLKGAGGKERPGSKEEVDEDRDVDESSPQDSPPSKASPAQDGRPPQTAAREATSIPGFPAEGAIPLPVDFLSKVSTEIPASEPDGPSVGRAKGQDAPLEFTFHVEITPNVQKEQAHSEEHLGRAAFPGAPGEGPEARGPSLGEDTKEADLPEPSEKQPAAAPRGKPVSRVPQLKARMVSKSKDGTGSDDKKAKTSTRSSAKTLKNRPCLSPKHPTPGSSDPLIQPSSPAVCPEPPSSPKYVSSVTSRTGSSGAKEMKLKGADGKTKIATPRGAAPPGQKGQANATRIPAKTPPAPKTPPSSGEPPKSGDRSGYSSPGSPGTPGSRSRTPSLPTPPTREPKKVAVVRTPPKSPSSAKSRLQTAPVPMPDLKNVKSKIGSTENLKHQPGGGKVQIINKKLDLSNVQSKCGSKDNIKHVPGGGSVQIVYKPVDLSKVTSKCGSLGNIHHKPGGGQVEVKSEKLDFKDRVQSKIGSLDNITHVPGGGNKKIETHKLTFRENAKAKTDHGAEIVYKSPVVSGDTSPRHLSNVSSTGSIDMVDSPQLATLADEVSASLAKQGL

In general, pKi refers to the Ki on a negative log10 scale, so that one unit is a factor of ten. Consider `Fc1ncc(-c2csc(-c3nc(-c4cnc5c(c4)OCO5)cs3)n2)cn1` [d10], for which the pKi on tau fibrils [1] was < 6.00; in data set [2], 8.32; at tau fibrils [4] it was 6.36. In data set [2], the “Selectivity Aβ/α-syn” value came to 45.1. For the same compound, the “Selectivity tau/α-syn” value in data set [2] was 91.5. In data set [3], the “solubility in the incubation medium” value is given as “decreased solubility”.
Consider `FCCOc1cnc(-c2csc(-c3nc(-c4cnc5c(c4)OCO5)cs3)n2)nc1` [f4, 6-(4′-(5-(2-Fluoroethoxy)pyrimidin-2-yl)-[2,2′-bithiazol]-4-yl)-[1,3]dioxolo[4,5-b]pyridine], for which, at tau fibrils [1], the pKi was 6.33. In addition, in data set [2], the pKi was 8.82, the “Selectivity Aβ/α-syn” value was 122.6 and the “Selectivity tau/α-syn” value is listed as 507.5. At tau fibrils [4], the pKi is 6.12.
For `FCCOc1cnc(-c2csc(-c3nc(-c4ccc5c(c4)OCO5)cs3)n2)nc1` [f5, 4-(Benzo[d][1,3]dioxol-5-yl)-4′-(5-(2-fluoroethoxy)pyrimidin-2-yl)-2,2′-bithiazole] the same measures were 6.29, 8.54, 53.8, 179.2 and 6.29.
For `FCCOCCOc1cnc(-c2csc(-c3nc(-c4ccc5c(c4)OCO5)cs3)n2)nc1` [f6, 4-(Benzo[d][1,3]dioxol-5-yl)-4′-(5-(2-(2-fluoroethoxy)ethoxy)pyrimidin-2-yl)-2,2′-bithiazole], in that order: 6.36, 8.31, 19.8, 74.1 and 6.44.
